# Source: patent US8021848B2, “Rapid and sensitive detection of cells and viruses” (Straus Holdings Inc., priority 2001, dated 2011)
# Assays:
# [1] = test system: E. coli MG1655 (sensitive strain); assay: Rapid antimicrobial susceptibility testing (broth dilution, large area CCD imaging); type: cell-based; conditions: after 4 hours of growth; comparable by CCD imaging, liquid culture or colony counting
# Procedure: (§1) Cells of two strains, one resistant and one sensitive, were tested for their ability to grow in a period of several hours in the antibiotic. Growth was detected by large area imaging of individual cells stained with a fluorescent nucleic acid stain.
# (§2) Experimental procedure. […] Also at these times points both a visible turbidity growth check and a plate count were performed. The turbidity check was performed according to NCCLS broth dilution guidelines. A “+” was recorded for a turbid culture and a “−” for non-turbid culture. The 1 ml aliquots were then stained with Syber Green I as in Example 2. Aliquots (10 μl) of the stained cells were placed in separate wells (with optically clear bottoms) of a 96 well plate (Greiner America, Inc.; cat. num. 655896), which contained 90 μl of water (Type I quality). The plates were spun in a centrifuge (Beckman Allegra) for 10 min at 600 g and then imaged. Fluorescence was detected by imaging using a CCD imager (described in Step 6 of Detailed description section and shown in FIG. 3) with an FITC optical filter set (Chroma/excitation 470/40 nm, emission 522/40 nm). Image-Pro Plus software, version 4.1 (Media cybernetics) was used to capture and process images from the CCD Imager.
# [2] = test system: E. coli MG1655/pLAFRI (resistant strain); conditions: after 4 hours of growth; comparable by CCD imaging, liquid culture or colony counting
# Procedure: as §1, §2
structure (smiles),measurement,setting,value
CN(C)[C@@H]1C(O)=C(C(N)=O)C(=O)[C@@]2(O)C(O)=C3C(=O)c4c(O)cccc4[C@@](C)(O)[C@H]3C[C@@H]12 [tetracycline],antibiotic concentration that inhibited growth of the antibiotic sensitive strain,[1],0.25 µg/mL
same,antibiotic concentration in which dramatic growth of the resistant strain was evident,[2],64 µg/mL
